Data as given in patent US20230371512A1, “FUNGICIDAL COMPOSITIONS” (SYNGENTA CROP PROTECTION AG, priority 2020, published 2023).

Experiments:
Septoria Glycines = test: Septoria glycines liquid culture growth inhibition (microtiter plate, PDB, visual); type: cell-based; conditions: read-out: Observed Activity (%)
Description: (§1) Septoria Glycines (Brown Spot): Conidia of the fungus from cryogenic storage were directly mixed into nutrient broth (PDB potato dextrose broth). A DMSO solution of the test compounds was placed into a microtiter plate (96-well format) and the nutrient broth containing the fungal spores was added to it.

[1] = system: Mycosphaerella arachidis Syn. Cercospora arachidicola; test: Mycosphaerella arachidis liquid culture growth inhibition (microtiter plate, PDB, photometric); type: cell-based; conditions: read-out: Observed Activity (%); for inhibition at 0.625 ppm: single compound 0.625 ppm; for inhibition at 1.25 ppm: single compound 1.25 ppm; for inhibition at 2.5 ppm: single compound 2.5 ppm; for inhibition at 5 ppm: single compound 5 ppm; for inhibition at 10 ppm: single compound 10 ppm; for inhibition at 20 ppm: single compound 20 ppm
Description: as §1, with “Mycosphaerella arachidis Syn. Cercospora arachidicola” for “Septoria Glycines”, “Leaf Spot of Peanut):” for “Spot):”, “it. The test plates were incubated at 24° C. and the inhibition of growth was determined photometrically after 5-6 days at 620 nm.” for “it.”

Phakopsora pachyrhizi = Phakopsora pachyrhizi soybean rust, treated plants / leaf disk test; type: in vivo; conditions: foliar, read-out: Observed Activity (%); for inhibition at 15 g/ha: single compound 15 g/ha
Description: Phakopsora pachyrhizi (Soybean Rust):
Whole soybean plants are treated with the recited active ingredients 4 weeks after planting. 1 day after spraying leaf disks are cut from the first trifoliate leaf. Five repetitions at each rate are conducted. The leaf disks are inoculated with Phakopsora pachyrhizi (Asian soybean rust) one day after treatment. Evaluation of the leaf disks is conducted 11 to 14 days after inoculation and the activity is derived from the relation of the treated vs untreated, infested check. The rates of the active ingredients used are given in Table as g active ingredient (a.i.)/ha.

Septoria tritici = Septoria tritici liquid culture growth inhibition (microtiter plate, PDB, photometric); type: cell-based; conditions: Zymoseptoria tritici, read-out: Observed Activity (%)
Description: as §1, with “tritici (Leaf Blotch):” for “Glycines (Brown Spot):”

## N#Cc1ccc(Oc2ccc(C(F)(F)C(O)(Cn3nc[nH]c3=S)c3ccc(F)cc3F)nc2)cc1 (stereo not drawn) [4-[[6-[2-(2,4-Difluorophenyl)-1,1-difluoro-2-hydroxy-3-(5-thioxo-4H-1,2,4-triazol-1-yl)propyl]-3-pyridyl]oxy]benzonitrile]
Septoria Glycines; single compound 0.25 ppm
  inhibition at 0.25 ppm: 20%
Septoria Glycines; single compound 0.5 ppm
  inhibition at 0.5 ppm: 20%

## Cc1cc(C2=NC(C)(C)C(F)(F)c3ccccc32)cnc1C(F)F [Compound A-1.2, 1-[6-(difluoromethyl)-5-methyl-3-pyridyl]-4,4-difluoro-3,3-dimethyl-isoquinoline]
[1]
  inhibition at 0.625 ppm: 0%
  inhibition at 1.25 ppm: 0%
  inhibition at 2.5 ppm: 0%
  inhibition at 5 ppm: 0%
  inhibition at 10 ppm: 20%
  inhibition at 20 ppm: 50%
Phakopsora pachyrhizi
  inhibition at 15 g/ha: 12%

## O=C(Nc1ccccc1F)c1ccc(-c2noc(C(F)(F)F)n2)cc1 [N-(2-fluorophenyl)-4-[5-(trifluoromethyl)-1,2,4-oxadiazol-3-yl]benzamide]
Phakopsora pachyrhizi; single compound 0.75 g/ha
  inhibition at 0.75 g/ha: 27%
Phakopsora pachyrhizi; single compound 1.5 g/ha
  inhibition at 1.5 g/ha: 45%

## Cc1cc(C2=NC(C)(C)C(F)(F)c3ccccc32)cnc1C [Compound A-1.1, 1-(5,6-dimethyl-3-pyridyl)-4,4-difluoro-3,3-dimethyl-isoquinoline]
[1]
  inhibition at 0.625 ppm: 0%
  inhibition at 1.25 ppm: 0%
  inhibition at 2.5 ppm: 0%
  inhibition at 5 ppm: 0%
  inhibition at 10 ppm: 0%
  inhibition at 20 ppm: 20%
Phakopsora pachyrhizi
  inhibition at 15 g/ha: 2%
Phakopsora pachyrhizi; single compound 30 g/ha
  inhibition at 30 g/ha: 4%
Septoria Glycines; single compound 5 ppm
  inhibition at 5 ppm: 0%
Septoria Glycines; single compound 10 ppm
  inhibition at 10 ppm: 20%
Septoria Glycines; single compound 20 ppm
  inhibition at 20 ppm: 50%
Septoria tritici; single compound 1.25 ppm
  inhibition at 1.25 ppm: 0%
Septoria tritici; single compound 2.5 ppm
  inhibition at 2.5 ppm: 0%
Septoria tritici; single compound 5 ppm
  inhibition at 5 ppm: 20%
Septoria tritici; single compound 10 ppm
  inhibition at 10 ppm: 50%
Septoria tritici; single compound 20 ppm
  inhibition at 20 ppm: 70%

## CNC(=O)C(F)(F)c1ccc(-c2noc(C(F)(F)F)n2)cc1 [2,2-difluoro-N-methyl-2-[4-[5-(trifluoromethyl)-1,2,4-oxadiazol-3-yl]phenyl]acetamide]
[1]
  inhibition at 10 ppm: 20%
  inhibition at 20 ppm: 50%

## CNC(=S)c1ccc(-c2noc(C(F)(F)F)n2)cc1 [N-methyl-4-[5-(trifluoromethyl)-1,2,4-oxadiazol-3-yl]benzenecarbothioamide]
[1]; single compound 3 ppm
  inhibition at 3 ppm: 70%
[1]; single compound 6 ppm
  inhibition at 6 ppm: 90%
Septoria tritici; single compound 6 ppm
  inhibition at 6 ppm: 50%

## CCN(C)C=Nc1cc(C)c(Oc2ccccc2F)cc1Cl [N′-[2-chloro-4-(2-fluorophenoxy)-5-methyl-phenyl]-N-ethyl-N-methyl-formamidine]
[1]; single compound 1 ppm
  inhibition at 1 ppm: 70%
[1]; single compound 2 ppm
  inhibition at 2 ppm: 90%
Phakopsora pachyrhizi; single compound 1 g/ha
  inhibition at 1 g/ha: 4%
Phakopsora pachyrhizi; single compound 2 g/ha
  inhibition at 2 g/ha: 13%
